In patent US9606108B2, “Deformable platforms for biological assays” (President and Fellows of Harvard College, priority 2011, dated 2017):

Test system: human airway smooth muscle (HASM) cells
Test: High-throughput traction microscopy (HTTM): RMS traction of HASM cell monolayers on gel in 96-well plates, before and after adding drug
Type: cell-based
Conditions: for normalized traction (RMS traction after adding drug/RMS traction before adding drug): control drugs on zero-hit drug plate, FIG. 14; for change in cellular contraction (RMS traction) with increasing doses: FIG. 13, control drugs
Method: Acrylamide gels with 1.8 kPa stiffness and 200-μm thickness were made in 96-well plates, fluorescent markers were coated in a single layer (0.2 μm) onto gel surfaces, and the gel plates were mounted on a fluorescent microscope with motorized stage. On each gel, HASM cells from a single donor were cultured to near confluence. Each well was seeded with 20,000 cells and was serum deprived for 2 days. FIG. 9 illustrates an example layout of a multiwell plate. Imaging of the fluorescent markers included 10× magnification, at 37° C. Three rounds of imaging was performed per plate. For each imaging, two florescent images and one phase image was acquired. Since a common problem for circular shape dishes is rotation of wells, the multi-well plate is optionally a rectangular shape, so that one can easily find the same location in each well. Images of fluorescent markers in each well are taken before cell seeding. In addition, one can store the exact z-position of best sensor focus on each well. It is known that the multi-well plate may not be perfectly flat (e.g., there can be sagging in the middle of the plate). In addition, small changes in sensor depth focus can jeopardize image quality and in turn, traction calculation. Therefore, a prescanning step can aid in screening. After prescanning, wells are seeded with cells and a regular cell culture protocol can be followed. In example 3, a baseline-scanning typically takes fifteen minutes. Drugs can be added and the plates can be incubated for a certain time (e.g., in example 3, incubation occurred over a period of one hour). After incubation, a drug-scan can occur. Thus, three images (prescan, baseline-scan, and drug-scan) are acquired. FIG. 7 is a series of images illustrating a set of three example acquired images. At 700 is a fluorescent image of a bottom bead (0.5 μm). At 710 is a phase contrast image. At 720 is a fluorescent image of a yellow/green bead 0.2 μm. Root mean square values of the absolute traction forces were calculated before and after adding drugs. FIG. 10 illustrates an example process flow diagram 1000 for high-throughput screening using cellular contraction. For example, using the process illustrated in FIG. 10 and a 96 well plate, each scan takes approximately 15 minutes. Since each plate goes through a baseline scan, drug incubation (60 minutes), and a drug scan, it takes approximately 90 minutes per plate. Drug-induced changes in traction provide a simple and physiologically relevant index to identify hits, i.e., those molecules that appreciably reduce cellular traction forces. FIG. 8 is a series of images illustrating six absolute cell traction maps. At 800-850 are cell traction maps for 0.5% Dimethylsulfoxide (DMSO), 1% Fetal Bovine Serum (FBS), 10 μM Y27632, both before and after adding drugs. Y27632 is an inhibitor of the Rho-associated protein kinase, which is known to reduce cellular contraction. […] The treatment of 1% FBS increased RMS traction by 77% from the baseline. The treatment of 10 uM Y-27632 decreased RMS traction by 71% from the baseline. The ratio of RMS tractions of before and after drug treatment (or, normalized contraction) is an index to evaluate the effects of drugs in both stiffening and softening responses.

SMILES	measured change in RMS traction (ratio of RMS tractions before and after drug treatment, normalized contraction) (10 μM Y27632, FIG. 8)	decrease of RMS traction from the baseline (10 uM Y-27632) [%]	normalized traction (RMS traction after adding drug/RMS traction before adding drug)	change in cellular contraction (RMS traction) with increasing doses	decrease in cellular contraction (increasing doses of isoproterenol, FIG. 13)	normalized traction (iso 50 μM, FIG. 12)
C[C@@H](N)[C@H]1CC[C@H](C(=O)Nc2ccncc2)CC1 [Y27632]	0.29	71	decreased traction	decreasing cellular contraction in a dose dependent manner	–	–
CC(C)NCC(O)c1ccc(O)c(O)c1 (centres unmarked) [isoproterenol]	–	–	decreased traction	did not appear dose dependent	more than 50%	below 0.5
